This is an account of results in patent publication US20250353891A1 (MEDIMMUNE LIMITED, priority 2022, published 2025).

Experiment [1] has as its target human glucagon receptor (hGCGR) (Homo sapiens, UniProt P47871). The experiment in a line: cAMP production (HTRF) in CHO cells expressing hGCGR. The class given is cell-based. Further details: expressed in transfected cells. As to conditions: cAMP in CHO hGCGR cells, geometric mean, read-out: hGluc-R EC50. The procedure, abridged: (§1)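 Potency values represent EC50 from 4-parameter logistic curves of HTRF % Delta F signal. Receptor-expressing CHO cells (hGCGR 2×10^5 cells/mL, hGLP-1R 1×10^5 cells/mL) were exposed for 30 min at room temperature before two-step cAMP detection.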

Experiment [2] has as its target human GLP-1 receptor (hGLP-1R) (Homo sapiens, UniProt P43220). Briefly: cAMP production (HTRF) in CHO cells expressing hGLP-1R. The class given is cell-based. Further details: expressed in transfected cells. As to conditions: for EC50: cAMP in CHO hGLP-1R cells, geometric mean, read-out: hGLP-1R EC50; for % Relative Potency Ratio: % GLP-1R activity relative to GLP-1 / % GlucR activity relative to glucagon. The procedure, abridged:
as §1
For orientation: Cyclic AMP is a second messenger, typically raised through Gs and lowered through Gi signalling.

The mark [3] stands for this setting: Table 6, peptides modified at position 17.
Where [4] appears, read: Table 7, peptides modified at position 20.

Where two headings read alike, the source gives them in different places. Starred links: 1 amine or outer side, 2 acyl side, 3 side chain; linkers in the order of their positions; H or OH if unused. Non-standard residues stand in square brackets, D forms with d. Residues, ends and D or L forms follow the SMILES beside them. Groups on a side chain read outwards from the residue. *: point of attachment. C20 diacid = O=C(O)CCCCCCCCCCCCCCCCCCC(=O)*; C18 diacid = O=C(O)CCCCCCCCCCCCCCCCC(=O)*; γGlu = O=C(O)[C@H](CCC(=O)[*:2])N[*:1]; Stearoyl = CCCCCCCCCCCCCCCCCC(=O)*; Palmitoyl = CCCCCCCCCCCCCCCC(=O)*; αMeF = C[C@](N)(Cc1ccccc1)C(=O)O; PEG4 = NCCOCCOCCOCCOCCC(=O)O; PEG2 = NCCOCCOCCC(=O)O; AEEA = NCCOCCOCC(=O)O; Aib = CC(C)(N)C(=O)O

Sequence of human GLP-1 receptor (hGLP-1R) (P43220 24-463): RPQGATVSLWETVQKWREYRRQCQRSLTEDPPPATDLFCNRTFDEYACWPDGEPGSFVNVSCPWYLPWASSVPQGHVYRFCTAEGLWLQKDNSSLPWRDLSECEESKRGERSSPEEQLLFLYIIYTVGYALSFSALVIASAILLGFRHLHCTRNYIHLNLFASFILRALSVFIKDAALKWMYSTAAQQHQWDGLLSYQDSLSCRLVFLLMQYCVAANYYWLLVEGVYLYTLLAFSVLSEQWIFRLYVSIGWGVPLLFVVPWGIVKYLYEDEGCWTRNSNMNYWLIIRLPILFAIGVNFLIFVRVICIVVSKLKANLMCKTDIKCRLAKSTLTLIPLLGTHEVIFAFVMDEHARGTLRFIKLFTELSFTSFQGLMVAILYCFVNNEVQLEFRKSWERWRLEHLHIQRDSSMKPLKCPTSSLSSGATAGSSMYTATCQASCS
Sequence of human glucagon receptor (hGCGR) (P47871 26-477): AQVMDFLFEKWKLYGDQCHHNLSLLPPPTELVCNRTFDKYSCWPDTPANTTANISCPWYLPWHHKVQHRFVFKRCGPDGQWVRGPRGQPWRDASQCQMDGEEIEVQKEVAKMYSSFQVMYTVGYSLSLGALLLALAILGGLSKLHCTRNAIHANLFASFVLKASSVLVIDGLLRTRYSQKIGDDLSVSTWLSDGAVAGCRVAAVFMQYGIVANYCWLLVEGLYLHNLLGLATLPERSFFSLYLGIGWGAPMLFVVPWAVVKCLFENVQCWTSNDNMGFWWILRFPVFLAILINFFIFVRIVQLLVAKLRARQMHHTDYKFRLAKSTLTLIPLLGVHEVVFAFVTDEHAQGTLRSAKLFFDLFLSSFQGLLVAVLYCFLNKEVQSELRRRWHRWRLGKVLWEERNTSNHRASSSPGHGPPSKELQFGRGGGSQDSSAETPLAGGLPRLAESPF

On to `CC(C)C[C@H](NC(=O)[C@H](Cc1c[nH]c2ccccc12)NC(=O)[C@H](CC(C)C)NC(=O)[C@@H](NC(=O)[C@H](Cc1ccccc1)NC(=O)[C@H](CC(=O)O)NC(=O)[C@H](CCCNC(=N)N)NC(=O)[C@H](C)NC(=O)[C@H](CCCNC(=N)N)NC(=O)[C@H](CCCCNC(=O)COCCOCCNC(=O)COCCOCCNC(=O)CC[C@H](NC(=O)CCCCCCCCCCCCCCCCCCC(=O)O)C(=O)O)NC(=O)[C@H](CCCCN)NC(=O)[C@H](CC(=O)O)NC(=O)[C@H](CC(C)C)NC(=O)[C@](C)(Cc1ccccc1)NC(=O)[C@H](CCCCN)NC(=O)[C@H](CO)NC(=O)[C@@H](NC(=O)[C@H](CC(=O)O)NC(=O)[C@H](CO)NC(=O)[C@@H](NC(=O)[C@H](Cc1ccccc1)NC(=O)[C@@H](NC(=O)CNC(=O)[C@H](CCC(N)=O)NC(=O)C(C)(C)NC(=O)[C@@H](N)Cc1c[nH]cn1)[C@@H](C)O)[C@@H](C)O)C(C)C)C(C)C)C(=O)N[C@@H](CC(C)C)C(=O)NC(C)(C)C(=O)N[C@@H](CCC(=O)O)C(N)=O` [Peptide 451] (H-H[Aib]QGTFTSDVSK[αMeF]LDKK([AEEA-AEEA-γGlu-C20 diacid])RARDFVLWLL[Aib]E-NH2; N-terminus assumed), for which the figures for the concentration giving a half-maximal response (EC50) in experiment [1] (setting [3]) and in experiment [2] (setting [3]) were 0.503 nM and 0.895 nM, respectively. In addition, in experiment [2] (Table 6), the “% Relative Potency Ratio” value is given as 1.1.

For the compound `CCCCCCCCCCCCCCCCCC(=O)N[C@@H](CCC(=O)N[C@@H](CCC(=O)NCCOCCOCCC(=O)NCCOCCOCCC(=O)NCCCC[C@H](NC(=O)[C@H](CO)NC(=O)[C@H](CC(=O)O)NC(=O)[C@H](CC(C)C)NC(=O)C(C)(C)NC(=O)[C@H](CCCCN)NC(=O)[C@H](CO)NC(=O)[C@@H](NC(=O)[C@H](CC(=O)O)NC(=O)[C@H](CO)NC(=O)[C@@H](NC(=O)[C@](C)(Cc1ccccc1)NC(=O)[C@H](CO)NC(=O)CNC(=O)[C@H](CCC(N)=O)NC(=O)[C@H](CO)NC(=O)[C@@H](N)Cc1c[nH]cn1)[C@@H](C)O)C(C)C)C(=O)N[C@@H](C)C(=O)N[C@@H](C)C(=O)N[C@@H](CCC(N)=O)C(=O)N[C@@H](CC(=O)O)C(=O)N[C@@](C)(Cc1ccccc1)C(=O)N[C@H](C(=O)N[C@@H](CCC(N)=O)C(=O)NC(C)(C)C(=O)N[C@H](C(=O)N[C@H](C(=O)N[C@@H](CCC(=O)O)C(N)=O)[C@@H](C)CC)[C@@H](C)CC)C(C)C)C(=O)O)C(=O)O` [Peptide 98] (H-HSQGS[αMeF]TSDVSK[Aib]LDSK([PEG2-PEG2-γGlu-γGlu-Stearoyl])AAQD[αMeF]VQ[Aib]IIE-NH2; N-terminus assumed), the 50% effective concentration (EC50) was determined as 0.0541 nM in experiment [1] (setting [3]) and 0.00244 nM in experiment [2] (setting [3]). In addition, the “% Relative Potency Ratio” value in experiment [2] (Table 6) was 43.8.

For the compound `CC[C@H](C)[C@H](NC(=O)C(C)(C)NC(=O)[C@H](CCC(N)=O)NC(=O)[C@@H](NC(=O)[C@](C)(Cc1ccccc1)NC(=O)[C@H](CC(=O)O)NC(=O)[C@H](CCCCNC(=O)CCOCCOCCOCCOCCNC(=O)CC[C@H](NC(=O)CC[C@H](NC(=O)CCCCCCCCCCCCCCCCCCC(=O)O)C(=O)O)C(=O)O)NC(=O)[C@H](C)NC(=O)[C@H](C)NC(=O)[C@H](CCCNC(=N)N)NC(=O)[C@H](CO)NC(=O)[C@H](CC(=O)O)NC(=O)[C@H](CC(C)C)NC(=O)[C@](C)(Cc1ccccc1)NC(=O)[C@H](CCCCN)NC(=O)[C@H](CO)NC(=O)[C@@H](NC(=O)[C@H](CC(=O)O)NC(=O)[C@H](CO)NC(=O)[C@@H](NC(=O)[C@](C)(Cc1ccccc1)NC(=O)[C@H](CO)NC(=O)CNC(=O)[C@H](Cc1c[nH]cn1)NC(=O)C(C)(C)NC(=O)[C@@H](N)Cc1c[nH]cn1)[C@@H](C)O)C(C)C)C(C)C)C(=O)N[C@@H](C)C(=O)N[C@@H](CC(N)=O)C(=O)N[C@H](C(N)=O)[C@@H](C)O` [Peptide 269] (H-H[Aib]HGS[αMeF]TSDVSK[αMeF]LDSRAAK([PEG4-γGlu-γGlu-C20 diacid])D[αMeF]VQ[Aib]IANT-NH2; N-terminus assumed), the half-maximal effective concentration (EC50) in experiment [1] (setting [4]) stood at 0.271 nM; in experiment [2] (setting [4]) it was 0.052 nM. Further, the “% Relative Potency Ratio” value in experiment [2] (Table 7) was found to be 10.3.

In the case of `CCCCCCCCCCCCCCCCCC(=O)N[C@@H](CCC(=O)N[C@@H](CCC(=O)NCCOCCOCCC(=O)NCCOCCOCCC(=O)NCCCC[C@H](NC(=O)[C@H](CO)NC(=O)[C@H](CC(=O)O)NC(=O)[C@H](CC(C)C)NC(=O)[C@](C)(Cc1ccccc1)NC(=O)[C@H](CCCCN)NC(=O)[C@H](CO)NC(=O)[C@@H](NC(=O)[C@H](CC(=O)O)NC(=O)[C@H](CO)NC(=O)[C@@H](NC(=O)[C@](C)(Cc1ccccc1)NC(=O)[C@H](CO)NC(=O)CNC(=O)[C@H](CCC(N)=O)NC(=O)[C@H](CO)NC(=O)[C@@H](N)Cc1c[nH]cn1)[C@@H](C)O)C(C)C)C(=O)N[C@@H](C)C(=O)N[C@@H](C)C(=O)N[C@@H](CCC(N)=O)C(=O)N[C@@H](CC(=O)O)C(=O)N[C@@](C)(Cc1ccccc1)C(=O)N[C@H](C(=O)N[C@@H](CCC(=O)O)C(=O)NC(C)(C)C(=O)N[C@@H](CC(C)C)C(=O)N[C@@H](CCC(=O)O)C(=O)N[C@@H](C)C(=O)NCC(=O)NCC(N)=O)C(C)C)C(=O)O)C(=O)O` [Peptide 81] (H-HSQGS[αMeF]TSDVSK[αMeF]LDSK([PEG2-PEG2-γGlu-γGlu-Stearoyl])AAQD[αMeF]VE[Aib]LEAGG-NH2; N-terminus assumed), the concentration giving a half-maximal response (EC50) in experiment [1] (setting [3]) was 0.0135 nM; in experiment [2] (setting [3]) it was 0.00119 nM. Moreover, in experiment [2] (Table 6), the “% Relative Potency Ratio” value was determined as 22.6.

As to `CCCCCCCCCCCCCCCC(=O)N[C@@H](CCC(=O)N[C@@H](CCC(=O)NCCOCCOCCC(=O)NCCOCCOCCC(=O)NCCCC[C@H](NC(=O)[C@H](CO)NC(=O)[C@H](CC(=O)O)NC(=O)[C@H](CC(C)C)NC(=O)[C@@H](NC(=O)[C@H](CCCCN)NC(=O)[C@H](CO)NC(=O)[C@@H](NC(=O)[C@H](CC(=O)O)NC(=O)[C@H](CO)NC(=O)[C@@H](NC(=O)[C@](C)(Cc1ccccc1)NC(=O)[C@H](CO)NC(=O)CNC(=O)[C@H](CCC(N)=O)NC(=O)[C@H](CO)NC(=O)[C@@H](N)Cc1c[nH]cn1)[C@@H](C)O)C(C)C)[C@@H](C)CC)C(=O)N[C@@H](C)C(=O)N[C@@H](C)C(=O)N[C@@H](CCC(N)=O)C(=O)N[C@@H](CC(=O)O)C(=O)N[C@@](C)(Cc1ccccc1)C(=O)N[C@H](C(=O)N[C@@H](CCC(N)=O)C(=O)NC(C)(C)C(=O)N[C@H](C(=O)N[C@@H](C)C(=O)N[C@@H](CC(N)=O)C(N)=O)[C@@H](C)CC)C(C)C)C(=O)O)C(=O)O` [Peptide 111] (H-HSQGS[αMeF]TSDVSKILDSK([PEG2-PEG2-γGlu-γGlu-Palmitoyl])AAQD[αMeF]VQ[Aib]IAN-NH2), the EC50 in experiment [1] (setting [3]) is 0.00209 nM; in experiment [2] (setting [3]) it was 0.00192 nM. In experiment [2] (Table 6), the “% Relative Potency Ratio” value amounted to 2.2.

Take `CC(C)C[C@H](NC(=O)[C@H](Cc1c[nH]c2ccccc12)NC(=O)[C@H](CCCNC(=N)N)NC(=O)[C@@H](NC(=O)[C@H](Cc1ccccc1)NC(=O)[C@H](CC(=O)O)NC(=O)[C@H](CCCCNC(=O)COCCOCCNC(=O)COCCOCCNC(=O)CC[C@H](NC(=O)CCCCCCCCCCCCCCCCC(=O)O)C(=O)O)NC(=O)[C@H](C)NC(=O)[C@H](CCCNC(=N)N)NC(=O)[C@H](CCCNC(=N)N)NC(=O)[C@H](CO)NC(=O)[C@H](CC(=O)O)NC(=O)[C@H](CC(C)C)NC(=O)[C@](C)(Cc1ccccc1)NC(=O)[C@H](CCCCN)NC(=O)[C@H](CO)NC(=O)[C@@H](NC(=O)[C@H](CC(=O)O)NC(=O)[C@H](CO)NC(=O)[C@@H](NC(=O)[C@H](Cc1ccccc1)NC(=O)[C@@H](NC(=O)CNC(=O)[C@H](CCC(N)=O)NC(=O)C(C)(C)NC(=O)[C@@H](N)Cc1c[nH]cn1)[C@@H](C)O)[C@@H](C)O)C(C)C)C(C)C)C(=O)N[C@@H](CC(C)C)C(=O)N[C@@H](CCC(=O)O)C(=O)NC(C)(C)C(=O)NCC(=O)O` [Peptide 331]: the concentration giving a half-maximal response (EC50) in experiment [1] (setting [4]) was 0.0666 nM; in experiment [2] (setting [4]), 0.0626 nM. Moreover, the “% Relative Potency Ratio” value in experiment [2] (Table 7) was 2.1.

On to `CC(C)C[C@H](NC(=O)[C@H](Cc1c[nH]c2ccccc12)NC(=O)[C@H](CCC(N)=O)NC(=O)[C@@H](NC(=O)[C@H](Cc1ccccc1)NC(=O)[C@H](CC(=O)O)NC(=O)[C@H](CCCCNC(=O)CC[C@H](NC(=O)CCCCCCCCCCCCCCCCC(=O)O)C(=O)O)NC(=O)[C@H](C)NC(=O)[C@H](CCCNC(=N)N)NC(=O)[C@H](CCCNC(=N)N)NC(=O)[C@H](CO)NC(=O)[C@H](CC(=O)O)NC(=O)[C@H](CC(C)C)NC(=O)[C@](C)(Cc1ccccc1)NC(=O)[C@H](CCCCN)NC(=O)[C@H](CO)NC(=O)[C@H](Cc1ccc(O)cc1)NC(=O)[C@H](CC(=O)O)NC(=O)[C@H](CO)NC(=O)[C@@H](NC(=O)[C@H](Cc1ccccc1)NC(=O)[C@@H](NC(=O)CNC(=O)[C@H](CCC(N)=O)NC(=O)C(C)(C)NC(=O)[C@@H](N)Cc1c[nH]cn1)[C@@H](C)O)[C@@H](C)O)C(C)C)C(=O)N[C@@H](CC(C)C)C(=O)NC(C)(C)C(=O)N[C@@H](CCC(=O)O)C(=O)O` [Peptide 339] (H-H[Aib]QGTFTSDYSK[αMeF]LDSRRAK([γGlu-C18 diacid])DFVQWLL[Aib]E-OH; N-terminus assumed), for which the concentration giving a half-maximal response (EC50) in experiment [1] (setting [4]) stood at 0.0703 nM; in experiment [2] (setting [4]), 0.312 nM. Besides, the “% Relative Potency Ratio” value in experiment [2] (Table 7) is given as 0.4.

Usually EC50 stands for the concentration needed to bring the measured effect to its halfway point.
